Measured values published in patent US20150005347A1, “NITROGEN-CONTAINING HETEROCYCLIC DERIVATIVE HAVING 2-IMINO GROUP AND PEST CONTROL AGENT INCLUDING THE SAME” (MEIJI SEIKA PHARMA CO., LTD., priority 2012, published 2015).
Like-named read-outs stand apart in the source and are kept apart here.

Legend:
Assay type in all cases: in vivo
[1] = system: Nilaparvata lugens exhibiting drug resistance to imidacloprid; details: soil irrigation; for Insecticidal effects against Nilaparvata lugens (mortality of larvae %), Drug resistant populations three days after the treatment: Rate 0.05 mg/pot; for insecticidal effects against drug resistant Nilaparvata lugens: imidacloprid-resistant; for mortality of larvae against drug resistant populations compared with susceptible populations of Nilaparvata lugens: imidacloprid-resistant vs susceptible
Method: Test Example 18 Pest Control Test of Drug-Resistant Nilaparvata lugens
(§1) A rice seedling in pot culture was subjected to soil irrigation treatment with a drug solution of the compound of the present invention at a predetermined concentration, which had been prepared so as to be a 10% acetone water. […] Thereafter, the larvae were left to stand in a thermostatic chamber (16 hours of light period-8 hours of dark period) at 25° C. […] The test was performed in duplicate.
(§2) Mortality of larvae(%)={number of dead larvae/(number of survived larvae+number of dead larvae)}×100
(§3) Further, for the origin of test pests, bugs collected outdoors within the Kumamoto prefecture in 2007 as the drug resistant Nilaparvata lugens, and bugs collected within the Kagoshima prefecture and then successively reared indoors for a long time as the imidacloprid susceptible populations of Nilaparvata lugens were used.

[2] = system: imidacloprid susceptible populations of Nilaparvata lugens; experiment: Soil irrigation test, imidacloprid susceptible populations of Nilaparvata lugens; details: Rate 0.05 mg/pot
Method: as §1, §2
Further, for comparison, the test against some population of Nilaparvata lugens which is highly susceptible to imidacloprid was performed by the same method as described above, and the results thereof are shown in Table 43.
as §3

Musca domestica = experiment: Pest control test of Musca domestica adults, sucrose pledget; details: 50 ppm in 40% sucrose liquid; four days after release
Method: Test Example 21 Pest Control Test of Musca domestica
A drug solution of the compound of the present invention, which had been adjusted to be 50 ppm with a 40% sucrose liquid, was adsorbed on a pledget, and the pledget was put into a vial. Two adults reared indoors were released thereto. Thereafter, the adults were left to stand indoors at room temperature of 25° C. […] When two adults were all agonized in death, it was judged to be effective.

Plutella xylostella = Plutella xylostella control test, cabbage leaf disk foliar spray; details: for % Mortality, Test Example1 Plutella xylostella: foliar treatment
Method: Test Example 1 Plutella xylostella Control Test
A leaf disk having a diameter of 5.0 cm was cut out from a cabbage in pot culture, and a drug solution of the compound of the present invention at a predetermined concentration, which had been prepared so as to be a 50% acetone water (0.05% Tween20 available), was sprayed to the leaf disk. After an air drying process, second instar larvae were released thereto. Thereafter, the larvae were left to stand in a thermostatic chamber (16 hours of light period-8 hours of dark period) at 25° C. […] Test in duplicate.
mortality larvae(%)={number of dead larvae/(number of survived larvae+number of dead larvae)}×100

Spodoptera litura = experiment: Pest control test against Spodoptera litura, cabbage leaf disk foliar spray; details: for % Mortality, Test Example2 Spodoptera litura: foliar treatment, 100 ppm; for mortality at 500 ppm: Spodoptera litura, 72 h, read-out: mortality of larvae
Method: Test Example 2 Pest Control Test Against Spodoptera litura
A leaf disk having a diameter of 5.0 cm was cut out from a cabbage in pot culture, and a drug solution of the compound of the present invention at a predetermined concentration, which had been prepared so as to be a 50% acetone water (0.05% Tween20 available), was sprayed to the leaf disk. After an air drying process, third instar larvae were released thereto. Thereafter, the larvae were left to stand in a thermostatic chamber (16 hours of light period-8 hours of dark period) at 25° C. […] Test in duplicate.
as §2

Aphis gossypii = experiment: Pest control test of Aphis gossypii, cucumber leaf disk foliar spray; details: foliar treatment
Method: Test Example 3 Pest Control Test of Aphis gossypii
A leaf disk having a diameter of 2.0 cm was cut out from a cucumber in pot culture, and a drug solution of the compound of the present invention at a predetermined concentration, which had been prepared so as to be a 50% acetone water (0.05% Tween20 available), was sprayed to the leaf disk. After an air drying process, first instar larvae were released thereto. Thereafter, the larvae were left to stand in a thermostatic chamber (16 hours of light period-8 hours of dark period) at 25° C. […] Test in duplicate.
as §2

[3] = system: Frankliniella occidentalis; experiment: Pest control test of Frankliniella occidentalis, kidney bean leaf disk foliar spray; details: for % Mortality, Test Example7 Frankliniella occidentalis: foliar treatment
Excerpt: Test Example 7 Pest Control Test of Frankliniella occidentalis
A leaf disk having a diameter of 2.8 cm was cut out from a kidney bean in pot culture, and a drug solution of the compound of the present invention at a predetermined concentration, which had been prepared so as to be a 50% acetone water (0.05% Tween20 available), was sprayed to the leaf disk. After an air drying process, first instar larvae were released thereto. Thereafter, the larvae were left to stand in a thermostatic chamber (16 hours of light period-8 hours of dark period) at 25° C. […] Test in duplicate.
as §2

[4] = system: Trigonotylus caelestialium; experiment: Pest control test of Trigonotylus caelestialium, wheat seedling dipping
Excerpt: Test Example 8 Pest Control Test of Trigonotylus caelestialium
Wheat seedling leaves and stems four days after the dissemination of seedlings were dipped for 30 seconds in a drug solution of the compound of the present invention at a predetermined concentration, which had been prepared so as to be a 50% acetone water (0.05% Tween20 available). After an air drying process, the wheat seedling leaves and stems were placed into a glass tube, and two second instar larvae of Trigonotylus caelestialium were released to the same glass tube. After the larvae were released, the tube was lidded to leave the larvae to stand in a thermostatic chamber at 25° C. In order to supply water to the wheat during the test, water was given to the wheat from the bottom of the glass tube.
as §2

Laodelphax striatella = experiment: Pest control test of Laodelphax striatella, soil irrigation treatment of rice seedling; details: for % Mortality, Test Example 10 Laodelphax striatella: soil irrigation treatment; for mortality of larvae: soil irrigation, 0.05 mg/seedling, three days after release
Excerpt: <Soil Irrigation Treatment Test>
Test Example 10 Pest Control Test of Laodelphax striatellua
A rice seedling in pot culture was subjected to soil irrigation treatment with a drug solution of the compound of the present invention at a predetermined concentration, which had been prepared so as to be a 10% acetone water. Three days after the treatment, ten second instar larvae of Laodelphax striatella were each released thereto. Thereafter, the larvae were left to stand in a thermostatic chamber (16 hours of light period-8 hours of dark period) at 25° C. […] The test was performed in duplicate.
as §2

Nilaparvata lugens = experiment: Pest control test of Nilaparvata lugens, soil irrigation treatment; details: for % Mortality, Test Example 12 Nilaparvata lugens: soil irrigation treatment; for mortality of larvae: soil irrigation, 0.05 mg/seedling, three days after release
Method: Test Example 12 Pest Control Test of Nilaparvata lugens
A rice seedling in pot culture was subjected to soil irrigation treatment with a drug solution of the compound of the present invention at a predetermined concentration, which had been prepared so as to be a 10% acetone water. Three days after the treatment, ten second instar larvae of Nilaparvata lugens were each released thereto. Thereafter, the larvae were left to stand in a thermostatic chamber (16 hours of light period-8 hours of dark period) at 25° C. […] The test was performed in duplicate.
as §2

FC(F)(Cl)C(=S)N=c1ccccn1Cc1ccc(Cl)nc1 [Compound 1-22]
Insecticidal effects against Nilaparvata lugens (mortality of larvae %), Drug resistant populations three days after the treatment [1]: 60%
insecticidal effects against drug resistant Nilaparvata lugens [1]: high insecticidal effects
mortality of larvae against drug resistant populations compared with susceptible populations of Nilaparvata lugens [1]: equivalent mortality of larvae
Insecticidal effects against Nilaparvata lugens (mortality of larvae %), Susceptible populations three days after the treatment [2]: 75%
activity against adults (effective when two adults were all agonized in death) (Musca domestica): all the adults are agonized in death

Fc1ccc(Cn2ccccc2=NC(=S)C(F)(F)F)cn1 [Compound 3-20]
% Mortality, Test Example1 Plutella xylostella (Plutella xylostella; 20 ppm): 0%
% Mortality, Test Example1 Plutella xylostella (Plutella xylostella; 100 ppm): 55%
% Mortality, Test Example2 Spodoptera litura (Spodoptera litura): 30%
% Mortality, Test Example3 Aphis gossypii (Aphis gossypii; 0.313 ppm): 15%
% Mortality, Test Example3 Aphis gossypii (Aphis gossypii; 1.25 ppm): 100%
% Mortality, Test Example3 Aphis gossypii (Aphis gossypii; 5 ppm): 100%
% Mortality, Test Example3 Aphis gossypii (Aphis gossypii; 20 ppm): 100%
% Mortality, Test Example3 Aphis gossypii (Aphis gossypii; 100 ppm): 100%
% Mortality, Test Example7 Frankliniella occidentalis ([3]; 100 ppm): 45%
% Mortality, Test Example8 Trigonotylus caelestialium ([4]; 2 ppm): 50%
% Mortality, Test Example8 Trigonotylus caelestialium ([4]; 10 ppm): 100%
% Mortality, Test Example8 Trigonotylus caelestialium ([4]; 50 ppm): 100%
% Mortality, Test Example 10 Laodelphax striatella (Laodelphax striatella; 0.05 mg/pot): 90%
% Mortality, Test Example 12 Nilaparvata lugens (Nilaparvata lugens; 0.01 mg/pot): 100%
% Mortality, Test Example 12 Nilaparvata lugens (Nilaparvata lugens; 0.05 mg/pot): 100%
Insecticidal effects against Nilaparvata lugens (mortality of larvae %), Drug resistant populations three days after the treatment [1]: 100%
insecticidal effects against drug resistant Nilaparvata lugens [1]: high insecticidal effects
mortality of larvae against drug resistant populations compared with susceptible populations of Nilaparvata lugens [1]: equivalent mortality of larvae
Insecticidal effects against Nilaparvata lugens (mortality of larvae %), Susceptible populations three days after the treatment [2]: 100%
activity against adults (effective when two adults were all agonized in death) (Musca domestica): all the adults are agonized in death

CCNC(=S)N=c1ccccn1Cc1ccc(Cl)nc1 [Comparative Example 8, 1-[1-((6-chloropyridine-3-yl)methyl)pyridine-2(1H)-ylidene]-3-ethylthiourea, reference compound]
mortality at 500 ppm (Plutella xylostella; Plutella xylostella, foliar, 72 h, read-out: mortality of larvae): 20%
mortality at 500 ppm (Spodoptera litura; foliar): 10%
mortality at 500 ppm ([3]; Frankliniella occidentalis, foliar, 72 h, read-out: mortality of larvae): 15%
mortality of larvae (Laodelphax striatella): 0%
mortality of larvae (Nilaparvata lugens): 15%
Insecticidal effects against Nilaparvata lugens (mortality of larvae %), Susceptible populations three days after the treatment [2]: 15%

FC(F)C(=S)N=c1ccccn1Cc1ccc(Cl)nc1 [Compound 1-21]
% Mortality, Test Example1 Plutella xylostella (Plutella xylostella; 20 ppm): 10%
% Mortality, Test Example1 Plutella xylostella (Plutella xylostella; 100 ppm): 80%
% Mortality, Test Example2 Spodoptera litura (Spodoptera litura): 55%
% Mortality, Test Example3 Aphis gossypii (Aphis gossypii; 0.313 ppm): 55%
% Mortality, Test Example3 Aphis gossypii (Aphis gossypii; 1.25 ppm): 100%
% Mortality, Test Example3 Aphis gossypii (Aphis gossypii; 5 ppm): 100%
% Mortality, Test Example3 Aphis gossypii (Aphis gossypii; 20 ppm): 100%
% Mortality, Test Example3 Aphis gossypii (Aphis gossypii; 100 ppm): 100%
% Mortality, Test Example7 Frankliniella occidentalis ([3]; 20 ppm): 80%
% Mortality, Test Example7 Frankliniella occidentalis ([3]; 100 ppm): 90%
% Mortality, Test Example8 Trigonotylus caelestialium ([4]; 2 ppm): 67%
% Mortality, Test Example8 Trigonotylus caelestialium ([4]; 10 ppm): 100%
% Mortality, Test Example8 Trigonotylus caelestialium ([4]; 50 ppm): 100%
% Mortality, Test Example 10 Laodelphax striatella (Laodelphax striatella; 0.01 mg/pot): 20%
% Mortality, Test Example 10 Laodelphax striatella (Laodelphax striatella; 0.05 mg/pot): 100%
% Mortality, Test Example 12 Nilaparvata lugens (Nilaparvata lugens; 0.01 mg/pot): 10%
% Mortality, Test Example 12 Nilaparvata lugens (Nilaparvata lugens; 0.05 mg/pot): 85%
Insecticidal effects against Nilaparvata lugens (mortality of larvae %), Drug resistant populations three days after the treatment [1]: 50%
insecticidal effects against drug resistant Nilaparvata lugens [1]: high insecticidal effects
mortality of larvae against drug resistant populations compared with susceptible populations of Nilaparvata lugens [1]: equivalent mortality of larvae
Insecticidal effects against Nilaparvata lugens (mortality of larvae %), Susceptible populations three days after the treatment [2]: 67%
activity against adults (effective when two adults were all agonized in death) (Musca domestica): all the adults are agonized in death

CCOC(=O)NC(=S)/N=c1\ccccn1Cc1ccc(Cl)nc1 [Comparative Example 9, 1-[1-((6-chloropyridine-3-yl)methyl)pyridine-2(1H)-ylidene]-3-ethoxycarbonylthiourea, reference compound]
mortality at 500 ppm (Spodoptera litura; foliar treatment at 500 ppm, third instar larvae, three days after release): 11%
mortality of larvae (Laodelphax striatella): 0%
mortality of larvae (Nilaparvata lugens): 0%
Insecticidal effects against Nilaparvata lugens (mortality of larvae %), Susceptible populations three days after the treatment [2]: 0%

FC(F)(F)C(F)(F)C(=S)N=c1ccccn1Cc1ccc(Cl)nc1 [Compound 1-23]
Insecticidal effects against Nilaparvata lugens (mortality of larvae %), Drug resistant populations three days after the treatment [1]: 70%
insecticidal effects against drug resistant Nilaparvata lugens [1]: high insecticidal effects
mortality of larvae against drug resistant populations compared with susceptible populations of Nilaparvata lugens [1]: equivalent mortality of larvae
Insecticidal effects against Nilaparvata lugens (mortality of larvae %), Susceptible populations three days after the treatment [2]: 85%
activity against adults (effective when two adults were all agonized in death) (Musca domestica): all the adults are agonized in death
